Each block holds one sequence with its values, some of them ahead of it. No end group written: not given here.
Key:
AN3CA cells = assay: In vivo metastasis assay (retro-orbital injection) in NOD/SCID mice; details: 6 weeks after injection
Procedure: All experimental procedures involving animals were conducted in accordance with the institutional guidelines set forth by the Children's Hospital Boston (CHB animal protocol number 11-09-2022). Eight to ten-week-old NOD/SCID mice were housed in a specific pathogen-free facility. To generate a xenograft mouse model, NOD/SCID mice were injected with 2×10^6 cells into right flanks. Cells were resuspended in 0.1 ml of PBS and then mix with 0.1 ml of matrigel. Two cell lines were prepared for xenografts: AN3CA and HEC-1A. Tumor sizes were measured weekly. As for metastasis mouse model, 1×10^6 AN3CA cells—were injected via the retro-orbital sinus as described previously (2). […] Cell proliferation in tumor was determined by staining histological sections with monoclonal antibody against Ki-67 (BD, Cat. No. 556003), and apoptosis was evaluated by terminal uridine deoxynucleotidyl transferase dUTP nick end labeling (TUNEL) assay (in situ cell death detection kit, Promega, Cat. No. G3250) according to manufacturer's protocol.
Next assessed was whether loss of SALL4 could affect tumor invasiveness. […] The invasive potential of these three cell lines in vitro: AN3CA, HEC-1A and Ishikawa cells was compared, and a strong association between SALL4 expression and invasive capacity was detected, with Ishikawa showing the least migration/invasion ability (data not shown). […]

SNU398 cells = details: after addition to cell culture plates
Description: Confocal microscopy was next used to study cellular uptake of TAT-WT by SNU398 cells in vitro.

AML = assay: Cellular uptake of FITC-labeled peptide; assay type: cell-based, human; details: with Chariot
Procedure: (§1) Cells were grown typically in 6 well plates (35 mm dish) to 50-70% confluence. Usually the transfect ion efficiency is somehow cell type specific. 2 mM peptide was diluted 4 times in PBS (2 ul+6 ul) (For FITC peptidedo not dilute the 2 mM stock). For each transfection reaction tube with 100 ul PBS+1 ul diluted peptide was set up. Chariot reagent was diluted 1:10 in ddH2O and for each transfection a 94 ul H2O tube+6 ul diluted Chariot was prepared (No master mix for more than 4 transfections). The 2 tubes were carefully mixed by pipetting up and down and incubated 30 min. at room temperature. Medium was aspirated from the dish (well) and cells were overlay with the mix. 400 ul serum free medium was added and cells were incubated further for 1 h 37 C (cell incubator). 500 ul complete medium (with 10% serum) was finally added. If cells are not very sensitive to serum starvation (cancer cell lines) 5% serum could be used.
(§2) Fluorescent and Confocal microscopy was performed on cells treated with FITC labeled peptides with or without of transfection reagent depending on the cell type. Cells were mounted on cover slips using mounting media with DAPI (Invitrogen) and in some cases cytoskeleton dye (Invitrogen).
(§3) In order to evaluate their cellular uptake and localization, the N terminus of these peptides was labeled with fluorescein isothiocyanate (FITC). Despite the net positive charge of these peptides, their uptake by the cells is cell-type specific. Some cell lines such as HL-60 (an AML cell line) allowed the peptide to enter the cells without any modification or carrier, and some cell lines were not penetrable at all. In order to achieve a similar level of peptide delivery in most cell types, a Chariot Transfection Reagent (Active Motif) was used as a peptide carrier, as directed from the manufacturer. All cell types used in the study described herein were subjected to individual evaluation of the percentage of the cells in which the peptide was delivered as well as the duration of time during which they sustained the labeled peptide in the cells. After Chariot treatment, confocal microscopy studies confirmed uptake of these peptides throughout the cell, including nuclei (as evidenced by DAPI overlay, FIG. 1B).

HL60 = assay: Cellular uptake of FITC-labeled peptide; assay type: cell-based, human; details: HL60, no carrier
Procedure: as §1, §2, §3

HuH-7 = assay: Cellular uptake of FITC-labeled peptide; assay type: cell-based, human; details: HuH-7, with Chariot
Procedure: as §1, §2, §3

SNU387 = assay: Cellular uptake of FITC-labeled peptide; assay type: cell-based, human; details: SNU387, with Chariot
Procedure: as §1, §2, §3

SNU-398 = assay: Cellular uptake of FITC-labeled peptide; assay type: cell-based, human; details: SNU-398, with Chariot
Procedure: as §1, §2, §3
Next tested was the cellular uptake and localization of these peptides in various types of cells using FITC-labeled wild type or scrambled peptides. Despite the net positive charge of these peptides, their penetration into cells is cell type-specific. Some cell lines, such as HL-60 (an AML cell line), allowed peptide entry without any modification or facilitator, while others such as SNU-398 were not penetrable at all. […] The overall success rate of peptide uptake by the cells was above 95% with Pep-1, as evaluated by flow cytometry (FIG. 9A). […]

AML3 = assay: Cellular uptake of FITC-labeled peptide; assay type: cell-based; details: AML3, no carrier
Procedure: as §1, §2, §3

CD34+ = assay: Cellular uptake of FITC-labeled peptide; assay type: cell-based; details: with Chariot
Procedure: as §1, §2, §3

KG1a = assay: Cellular uptake of FITC-labeled peptide; assay type: cell-based; details: no carrier
Procedure: as §1, §2, §3

MCF7 = assay: Cellular uptake of FITC-labeled peptide; assay type: cell-based; details: MCF7, with Chariot
Procedure: as §1, §2, §3

SALL4A and SALL4B = assay: SALL4 knock-down in endometrial cancer cells (Western blot, qRT-PCR); assay type: cell-based, human; details: AN3CA and HEC-1A
Description: In brief, the expression plasmids for human SALL4A and SALL4B were constructed using FUW-Luc-mCh-puro vector (FIG. 43A). SALL4A or SALL4B mutant preserving the same amino acid sequence, but containing triple-point mutations within the SALL4shRNA1 target nucleotide sequence, which renders the transgenes resistant to SALL4 shRNA targeting, were generated using QuikChange site-directed mutagenesis kit (Stratagene) and confirmed by sequencing. Short hairpin RNAs set for human SALL4 in pLKO.1-puro vector were purchased from Open Biosystems (RHS3979) and knockdown efficiency was further evaluated. Two of them, designated as SALL4shRNA1 and SALL4shRNA 2, were selected for subsequent experiments. The sequences for SALL4 shRNAs and Scramble shRNA are listed as following: SALL4shRNA1: […] (SEQ ID NO: 3); SALL4shRNA 2: CTATTTAGCCAAAGGCAAA (SEQ ID NO: 2); Scr-shRNA: […] (SEQ ID NO: 14)
To assess the biological functional role of SALL4 in endometrial cancer, first evaluated was SALL4 expression in a panel of six endometrial cancer cell lines using quantitative real-time PCR to select for appropriate models for our functional studies (FIG. 40). […]

Sequence: CCTAAGGTTAAGTCGCCCTCG [scramble shRNA]
- metastatic tumor formation (AN3CA cells): Four out of five

Sequence: YGRKKRRQRRRMSRRKQAKPHI [TAT-WT, NH2-YGRKKRRQRRR-MSRRKQAKPHI-COOH]
- time to localization within the nucleus (SNU398 cells): ≤ 15 min

- peptide uptake (cells with peptide) (AML): 50% (Ch)
- peptide uptake (cells with peptide) (HL60): ~50%
- peptide uptake (cells with peptide) (HuH-7): 60% (ch)
- peptide uptake (cells with peptide) (SNU387): 60% (Ch)
- peptide uptake (cells with peptide) (SNU-398): 60% (Ch)
- peptide uptake (cells with peptide) (AML3): ~10%
- peptide uptake (cells with peptide) (CD34+): 50% (Ch)
- peptide uptake (cells with peptide) (KG1a): >15%
- peptide uptake (cells with peptide) (MCF7): 70% (Ch)
Sequence: MSRRAQAKPQHI [Mut peptide, MSRRAQAKPQHI, reference compound]

Sequence: GCCTTGAAACAAGCCAAGCTA (expressed or natural sequence) [SALL4-sh1]
- down-regulation of SALL4A and SALL4B (SALL4A and SALL4B): could down-regulate SALL4A and SALL4B efficiently

Source: patent US9365851B2, “Spalt-like transcription factor 4 (SALL4) and uses thereof” (National University of Singapore, priority 2011, dated 2016)
